The values that follow come from patent EP3565534B1, “POLYMERIC NANOPARTICLES ENCAPSULATING A COMBINATION OF NATURAL BIO-ACTIVES TRANS-RESVERATROL(RSV) AND CELASTROL(CL), A PROCESS FOR THE PREPARATION AND USE THEREOF IN THE TREATMENT OF PROSTATE CANCER” (Università degli Studi di Sassari, priority 2017, dated 2018).

SMILES strings stand for the structures. Read-outs that look alike come from different tables or passages of the source.

For data set [1] the following is noted: cited from earlier work.
Data set [2] deals with prostate cancer cell lines (C-42, DU-145, and PC-3 cells). Put plainly: MTT assay, antiproliferative efficacy, results stated for all three cell lines together. The format is cell-based. Particulars: 72 hours; non-encapsulated, alone; RSV 20, 30, 40 µM; CL 0.250, 0.375, 0.5 µM. On the procedure: Finally, in vitro cytotoxicity studies were performed in order to evaluate whether co-administration of encapsulated RSV and CL would have allowed an increase in the antiproliferative efficacy compared to single molecules, both as such and formulated in nanosystems, on androgen-dependent (C-42 cells) and androgen-independent (DU-145 and PC-3 cells) prostate cancer cell lines (PCa).
The antiproliferative efficacy of the NPs of the present invention was evaluated using the MTT assay (3-[4,5-dimethylthiazol-2-yl]-2,5-diphenyl tetrazolium bromide) applying the procedure described in Sanna V., et al., Resveratrol-loaded nanoparticles based on poly(epsilon-caprolactone) and poly(D,L-lactic-co-glycolic acid)-poly(ethylene glycol) blend for prostate cancer treatment. Mol. Pharm. 2013 Oct 7;10(10):3871-81, which, as a result, is included herein as a reference in its entirety.
Each experiment was repeated 3 or 5 times (n = 3 or 5).
Background: Tetrazolium dyes change colour on reduction, which living cells bring about.

On to `CC1=C(O)C(=O)C=C2C1=CC=C1[C@@]2(C)CC[C@@]2(C)[C@@H]3C[C@](C)(C(=O)O)CC[C@]3(C)CC[C@]12C` [CL, Celastrol], for which the solubility in water result in data set [1] (result in words) is listed as “insoluble”.

As for `Oc1ccc(/C=C/c2cc(O)cc(O)c2)cc1` [RSV, trans-3,5,4'-trihydroxy-stilbene], the viability entry in data set [2] is “reduction of viability that is generally dose-dependent”. Moreover, in data set [1], the solubility in water is 3 mg/100 mL.
